Values joined by “and” are separate entries in the source; they are usually repeats but may differ in a detail not shown here. Equal entries are not always repeated.
Legend:
CB1 = settings: exogenous administration of a CB1 agonist; cited from earlier work
[1] = system: capsaicin-induced hyperalgesia and allodynia; settings: topical administration, humans; cited from earlier work
[2] = system: carrageenan, capsaicin, and formalin models of inflammatory pain in rodents; settings: systemic delivery; cited from earlier work
[3] = system: rats following ligation of spinal nerves; settings: local (subcutaneous) or systemic administration; cited from earlier work
[4] = system: MIA model of osteoarthritis in rats; experiment: Monosodium iodoacetate (MIA) model of osteoarthritis pain; type: in vivo, rat; settings: 3, 10 and 30 mg/kg orally; one hour after dosing; FIG. 2
Text: Injection of monosodium iodoacetate (MIA) into a joint (Kalbhen, 1987) inhibits the activity of glyceraldehyde-3-phosphate dehydrogenase in chondrocytes, resulting in disruption of glycolysis and eventually in cell death. The progressive loss of chondrocytes results in histological and morphological changes of the articular cartilage, closely resembling those seen in osteoarthritis patients.
The osteoarthritis was induced in 200 g male Sprague Dawley rats. […]
Typically during disease progression, there was an inflammation period of 0-7 days post-intra-articular injection followed by progressive degeneration of the cartilage and subchondral bone from days 14-55. […] Tactile allodynia was measured via von Frey assay, hind limb paw weight distribution was monitored using an incapacitence tester (Columbus Instruments, Columbus, Ohio, USA) and hind limb grip strength was measured using a grip strength meter (Columbus Instruments, Columbus, Ohio, USA). […] Hind paw weight distribution was determined by placing rats in a chamber so that each hind paw rests on a separate force plate of the incapacitence tester. The force exerted by each hind limb (measured in grams) is averaged over a 3 second period. Three measurements were taken for each rat, and the change in hind paw weight distribution calculated. […]

[5] = system: FCA-induced hyperalgesia in rats; experiment: FCA-induced hyperalgesia model of inflammatory pain; type: in vivo, rat; settings: 0.1, 1, 3, 10 and 30 mg/kg orally; 1 h post dosing; Analgesy-Meter; FIG. 1
Protocol: Male Sprague Dawley rats from Harlan (200-225 g when received) were used. Upon arrival, rats were housed 4 per cage in shoe-box polycarbonate cages with wire tops, wood chip bedding and suspended food and water bottles. Animals were acclimated for 5-7 days prior to being injected with Freund's complete adjuvant (FCA) (Sigma; catalog #5881).
2 days (48 h) before testing compounds, baseline readings of all rats were taken right before FCA injection. Rats were then injected with 50 μL FCA containing 1 mg/mL Mtb (Mycobacterium tuberculosis) in right hind footpad under inhalation anesthesia (isoflurane). 48 hours after FCA injection, readings were taken as pre-dosing baseline and then rats were dosed orally with 0.5 mL of vehicle or compound (0.5 mL per 250 g rat). Readings were taken again at 1 h post dosing. All readings were taken with an Analgesy-Meter (Ugo Basile) which measures mechanical hyperalgesia via paw pressure.
FCA-induced hyperalgesia was tested with an Analgesy-Meter. Briefly, the Analgesy Meter applied an increasing pressure to the right hind paw. The paw withdrawal threshold was the pressure leading to withdrawal.
Meanwhile a group of rats were dosed orally with 50 mg/kg of Diclofenac as a positive control. Readings were taken again at 1 h post dosing. Dosing volume was 500 μL per 250 g rat.

[6] = system: paclitaxel-induced allodynia in Sprague Dawley rats; experiment: Paclitaxel-induced allodynia; type: in vivo, rat; settings: 10 mg/kg orally
Protocol: Therapy however is often associated with the unwanted side affects of painful peripheral neuropathy.
Male Sprague Dawley rats [200-250 g](Harlan Laboratories Inc., Livermore, Calif.) were housed three per cage and maintained in a humidity-controlled (40-60%) and temperature-controlled (68-72° F.) facility on a 12 h: 12 h light/dark cycle (lights on at 6:30 am) with free access to food (Harlan Teklad, Orange, Calif., Rodent Diet 8604) and water. Rats were allowed one week of habituation to the animal facility before starting treatment.
Rats were treated intraperitoneally, with 2 mg/kg of paclitaxel (Sigma Aldrich, Saint Louis, Mo.) in 10% Cremophor vehicle (500 μL) on days 0, 2, 4, and 6.
Tactile allodynia was tested using von Frey filaments. Briefly, the von Frey assay was performed using the standardized up down method with von Frey filaments, that determine the tactile sensitivity of the paw. By applying the increasingly or decreasingly thicker filaments to the paw in a logarithmic scale of actual force, a linear scale of perceived intensity is determined.
Eight days after the start of paclitaxel dosing, a baseline measurement (von Frey assay) was performed prior to dosing of compounds. […] As a positive control, rats were dosed intraperitoneally with 100 mg/kg gabapentin in water. The dosing volume for oral and peritoneal treatment was 500 μL. […]

[7] = system: STZ-induced PDPN model, diabetic and allodynic rats; experiment: Streptozotocin-induced painful diabetic peripheral neuropathy (PDPN) model; type: in vivo, rat; settings: 10 mg/kg orally in 0.5% methylcellulose; 1, 4 and 6 hours post-dosing; FIG. 13, 14
Protocol: Male Sprague-Dawley rats were injected intraperitoneally with 50 mg/kg of streptozotocin (STZ) in sodium citrate buffer. 10% sucrose water was provided ad libitum for the first 48 hours post-STZ followed by regular drinking water. Rats were monitored once weekly for blood glucose levels and body weights. Development of tactile allodynia over time was analyzed using Von Frey filaments and a 50% withdrawal threshold was determined using Dixon's up-down procedure. […] Tactile allodynia was evaluated at 1, 4 and 6 hours post-dosing.

[8] = system: Monosodium iodoacetate-induced osteoarthritis rats; experiment: Combination of Compound 699 and morphine in MIA-induced osteoarthritis pain, Von Frey test; type: in vivo, rat; settings: Von Frey one hour post-dosing

Sequence of CB1 (P47746 whole entry): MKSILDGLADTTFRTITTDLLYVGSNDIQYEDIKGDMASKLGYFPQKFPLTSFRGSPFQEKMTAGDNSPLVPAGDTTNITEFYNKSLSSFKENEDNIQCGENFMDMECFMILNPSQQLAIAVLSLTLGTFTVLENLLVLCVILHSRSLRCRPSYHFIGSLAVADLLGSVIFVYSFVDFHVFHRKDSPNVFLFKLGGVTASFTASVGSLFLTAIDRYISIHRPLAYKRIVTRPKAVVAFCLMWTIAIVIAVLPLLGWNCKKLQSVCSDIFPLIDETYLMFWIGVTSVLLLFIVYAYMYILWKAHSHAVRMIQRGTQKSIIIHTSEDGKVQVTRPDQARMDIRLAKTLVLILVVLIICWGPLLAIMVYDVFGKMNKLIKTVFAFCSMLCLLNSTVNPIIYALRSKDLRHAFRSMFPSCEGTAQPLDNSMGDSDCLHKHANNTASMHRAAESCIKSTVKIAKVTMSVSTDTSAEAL

Structure (SMILES): CCCCC/C=C\C/C=C\C/C=C\C/C=C\CCCC(=O)NCCCl [arachidonyl-2-chloroethylamide]
- effect on pain (CB1): reduces pain

Structure (SMILES): CCCCCCC(C)(C)c1cc(O)c2c(c1)OC(C)(C)[C@@H]1CC=C(CO)C[C@@H]21 [HU-210]
- effect on capsaicin-induced hyperalgesia and allodynia [1]: attenuates capsaicin-induced hyperalgesia and allodynia

Structure (SMILES): CN1CCCCC1Cn1cc(C(=O)c2cc([N+](=O)[O-])ccc2I)c2ccccc21 (stereo not drawn) [AM1241]
- effect on induced hyperalgesia [2]: suppresses hyperalgesia
- effect on tactile and thermal hypersensitivity [3]: reverses tactile and thermal hypersensitivity

Structure (SMILES): CC(C)(CO)NC(=O)c1nn(-c2ccc(F)cc2F)c2c1C[C@H]1C[C@@H]21 [Compound 493, (1aR,5aR)-2-(2,4-Difluoro-phenyl)-1a,2,5,5a-tetrahydro-1H-2,3-diaza-cyclopropa[a]pentalene-4-carboxylic Acid (2-Hydroxy-1,1-dimethyl-ethyl)-amide]
- Increase in paw withdrawal threshold (PWT) in comparison with vehicle [4]: exhibiting therapeutic efficacy
- increase in paw withdrawal threshold (PWT) in comparison with the vehicle [5]: exhibited therapeutic efficacy
- time of maximum efficacy post-dosing ([6]; time course): 1 h
- increase in paw withdrawal threshold (PWT) in comparison with vehicle and gabapentin ([6]; von Frey 30, 60 and 180 minutes after dosing, FIG. 3): exhibiting therapeutic efficacy

Structure (SMILES): CC(C)(C)[C@@H](CO)NC(=O)c1nn(-c2c[n+]([O-])ccn2)c2c1C[C@@H]1C[C@H]21 [Compound 699, (1aS,5aS)-2-(4-Oxy-pyrazin-2-yl)-1a,2,5,5a-tetrahydro-1H-2,3-diaza-cyclopropa[a]pentalene-4-carboxylic Acid ((S)-1-Hydroxymethyl-2,2-dimethyl-propyl)-amide]
- analgesic efficacy, tactile allodynia (50% withdrawal threshold) [7]: robust and sustained analgesic efficacy over 6 hours
- paw withdrawal threshold (PWT), individual values ([8]; 1 mpk Compound 699 orally): 6.66 and 5.56 and 11.69 and 5.54 and 7.80 and 3.58
- paw withdrawal threshold (PWT), individual values ([8]; 10 mpk Compound 699 orally (positive control)): 6.58 g and 7.8 g
- paw withdrawal threshold (PWT), individual values ([8]; 10 mpk Compound 699 orally (positive control), in g): 15.00 (3×) and 11.69
